Experimental data from US11464228B2 (priority 2020, dated 2022).
Entries after “also recorded” stand apart in the source; their conditions may differ.

Legend:
Daphnia magna = conditions: cited from earlier work
Microcystis aeruginosa [1] = experiment: Comparison of algaecides, inhibition rate from chlorophyll a content; assay type: cell-based; conditions: incubated 3 days; 15 mg/L
Description: (§1) Unless otherwise specified, the Microcystis aeruginosa species used in the following examples is the high-toxin-producing strain FACHB-905.
The measurement of chlorophyll a refers to the method in the literature (“Potent removal of cyanobacteria with controlled release of toxic secondary metabolites by a titanium xerogel coagulant”, Water Res. 2018, 128, 341-349). Specifically, collected algae culture is filtered with a 0.7 μm GF/F glass filter membrane (Whatman). The collected cells are frozen overnight in a refrigerator at −4° C. Then 90% acetone is added for overnight extraction. The extract is centrifuged in a high-speed refrigerated centrifuge (Tianuoda, CT14RD) at 10,000 rpm and 4° C. for 10 min to collect the supernatant, and the absorbance is detected at 630 nm, 663 nm, 645 nm and 750 nm. The formula for calculating the content of chlorophyll a is as follows:
[formula] wherein A663, A750, A645 and A750 are the absorbance of the supernatant at 663 nm, 750 nm, 645 nm and 750 nm, respectively. Ve is the volume of an extracted solution, Vs is the volume of a filtered solution, and δ is the optical path of a cuvette. The calculation formula for the inhibition rate of an algaecide on Microcystis aeruginosa is as follows: […]
300 mL of BG-11 medium was added to 500 mL Erlenmeyer flasks, and was inoculated with cyanobacteria of 0.2 calculated as OD680 under aseptic conditions. […]

Staphylococcus aureus = experiment: Bacterial growth with AA, OD600 after 24 h; assay type: cell-based
Method: (§2) The bacteria used in the following examples are Escherichia coli, Salmonella, Bacillus subtilis and Staphylococcus aureus, all of which are provided by the School of Life Sciences, Nanjing University. The bacteria are cultured with an LB nutrient broth. The main components of the LB nutrient broth include: tryptone 10.0 g/L, yeast extract 5.0 g/L, and sodium chloride 10.0 g/L.
(§3) Microcystis aeruginosa is cultured in a light incubator (GZX-250BS-III), provided by Shanghai CIMO Medical Instrument Co., Ltd., with a light intensity of 3000 LX, a light-dark time ratio of 12:12, and a temperature setting of 25° C. The four kinds of bacteria are all cultured in a biochemical incubator (SPX-150), provided by Shanghai Yuejin Medical Instruments Co., Ltd., with a temperature setting of 37° C.
(§4) The concentration of Microcystis aeruginosa and other bacteria is measured with an ultraviolet spectrophotometer (Shimadzu, UV-2700), and the concentration is characterized by the optical density of liquid at 680 nm and 600 nm, and recorded as OD680 and OD600, respectively.
(§5) 4 mL of nutrient broth was added to 9 test tubes under aseptic conditions, and the test tubes were numbered 1 to 9. A broth stock solution containing 1,536 mg/L AA was prepared, and 4 mL of which was taken and added to the No. 9 test tube. After the solution in the No. 9 test tube was uniformly mixed, 4 mL of the mixed solution in the No. 9 test tube was taken and added to the No. 8 test tube. By analogy, dilution was performed by the stepwise dilution method to the No. 2 test tube, and after uniform mixing, 4 mL of the solution in the No. 2 test tube was taken and discarded. The No. 1 test tube without AA was taken as the blank group (Control). The final concentrations of AA in each test tube from No. 1 to No. 9 were 0 mg/L, 6 mg/L, 12 mg/L, 24 mg/L, 48 mg/L, 96 mg/L, 192 mg/L, 384 mg/L, and 768 mg/L, respectively. A suspension of the bacteria was diluted with nutrient broth to an OD600 of 0.05. 100 μL of the diluted suspension was added to each of the 9 test tubes, and the test tubes were sealed with sterilized sealing films. After completing the above operations, the bacterial solutions were put into a biochemical incubator, and the OD600 in each test tube was measured after incubation for 24 h.

Salmonella = experiment: Bacterial growth with AA, OD600 after 24 h; assay type: cell-based
Method: as §2, §3, §4, §5

Escherichia coli = experiment: Bacterial growth with AA, OD600 after 24 h; assay type: cell-based; conditions: for growth rate (OD600) / effect on growth (OD600): 24 h; for effect on growth (OD600): 6-768 mg/L, vs control
Method: as §2, §3, §4, §5

Bacillus subtilis = experiment: Bacterial growth with AA, OD600 after 24 h; assay type: cell-based; conditions: for effect on growth (OD600): 6-768 mg/L, 24 h, vs control
Method: as §2, §3, §4, §5

Microcystis aeruginosa [2] = experiment: Growth inhibition under natural light (sunlit window sill), OD680; assay type: cell-based; conditions: under sunlight, within 5 days
Method: as §1, §4
100 mL of BG-11 medium was added to 150 mL Erlenmeyer flasks, and was inoculated with cyanobacteria to an initial OD680 of 0.2 under aseptic conditions. A certain volume of the AA stock solution was added to the Erlenmeyer flasks, so that the dosage of AA was 10 mg/L or 20 mg/L. At the same time, a control experiment (Control) without AA was established. The cyanobacteria were placed at a sunlit window sill for incubation. At the beginning of the incubation and after 0.5 d, 1 d, 1.5 d, 2 d, 3 d, 4 d, and 5 d of the incubation, samples were taken to detect the OD680 under aseptic conditions.

[3] = tested on: Microcystis aeruginosa (FACHB-469); experiment: Algicidal effect on non-toxic Microcystis aeruginosa, OD680 over 5 d in light incubator; assay type: cell-based
Method: as §3, §4
(§6) 100 mL of BG-11 medium was added to a 150 mL Erlenmeyer flasks, and was inoculated with cyanobacteria of 0.2 calculated as OD680 under aseptic conditions. Different volumes of the AA stock solution were added to the Erlenmeyer flasks to make sure that the dosage of AA was 5 mg/L, 7 mg/L, 10 mg/L, 15 mg/L and 20 mg/L in different Erlenmeyer flasks. At the same time, a control experiment (Control) without AA was established. The cyanobacteria were put in a light incubator for culture. Considering the existing reports that the most suitable growth light for cyanobacteria was 2,000-4,000 LX (see “Freshwater Algae Culture Collection at the Institute of Hydrobiology”, website “http://algae.ihb.ac.cn/Products/ProductDetail.aspx?product=523”, and the literature “The effect of light on the growth and chlorophyll fluorescence of Chlorella and Microcystis aeruginosa”, Journal of Xi'an University of Arts and Science, 2019, 22, 73-77”), 3,000 LX was selected as the light intensity in the present example. At the beginning of the incubation and after 0.5 d, 1 d, 1.5 d, 2 d, 3 d, 4 d and 5 d of the incubation, samples were taken to detect the OD680 under aseptic conditions.
Except for the different cyanobacteria strain, other operations are the same as those in step (1).

Microcystis aeruginosa [4] = experiment: Algicidal effect at different initial densities of Microcystis aeruginosa, OD680; assay type: cell-based; conditions: 15 mg/L; initial OD680 0.11 to 1.0 (up to 2.59×10^7 cells/mL); 5 d
Method: as §1, §4
100 mL of BG-11 medium was added to 150 mL Erlenmeyer flasks, and was inoculated with cyanobacteria to finally obtain solutions with the OD680 of 0.11, 0.27, 0.62 and 1.0, respectively, under aseptic conditions. A certain volume of the AA stock solution was added to the Erlenmeyer flasks, so that the dosage of AA is 15 mg/L. At the same time, the control experiments (Control) without AA were established for different cyanobacteria densities. The cyanobacteria were put in a light incubator for culture. At the beginning of the incubation and after 1 d, 2 d, 3 d, 4 d, and 5 d of the incubation, samples were taken to detect the OD680 under aseptic conditions.

[5] = pH 6.4; cited from earlier work
[6] = 25° C.; cited from earlier work
[7] = tested on: Microcystis aeruginosa (FACHB-905); experiment: Algicidal effect on toxin-producing Microcystis aeruginosa, OD680 over 5 d in light incubator; assay type: cell-based
Method: as §3, §4, §6

Microcystis aeruginosa [8] = experiment: Actual photochemical quantum yield of the photosystem (Water-PAM); assay type: cell-based
Method: as §1
The actual photochemical quantum yield is measured using a Water-PAM phytoplankton analyzer (Walz), and 2.5 mL of algae culture is taken to measure Fm′ and Fs after light adaptation. The calculation formula for the actual photochemical quantum yield is as follows: ϕe=ΔF/Fm′=(Fm′−Fs)/Fm′ wherein ϕe is the actual photochemical quantum yield, and Fm′ and Fs are the maximum chlorophyll fluorescence and the stable chlorophyll fluorescence of the algae culture after light adaptation, respectively (“Effects of different algaecides on the photosynthetic capacity, cell integrity and microcystin-LR release of Microcystis aeruginosa”, Sci. Total Environ. 2013, 463, 111-119).
100 mL of BG-11 medium was added to 150 mL Erlenmeyer flasks, and was inoculated with cyanobacteria to an initial OD680 of 0.2 under aseptic conditions. Different volumes of the AA stock solution were added to the Erlenmeyer flasks, so that the dosage of AA was 7 mg/L, 10 mg/L and 15 mg/L, respectively. At the same time, a control experiment (Control) without AA was established. […] At the beginning of the incubation and after 0.5 d, 1 d, 1.5 d, 2 d, 3 d, 4 d, and 5 d of the incubation, samples were taken to detect the chlorophyll fluorescence parameters under aseptic conditions.

[9] = concentration less than 738 mg/L

**Q.** With `CC(=O)CC(C)=O` [AA, acetylacetone] as the molecule, how does the median lethal dose (Daphnia magna) read?
**A.** higher than 50 mg/L

**Q.** What about the “inhibition rate on Microcystis aeruginosa (chlorophyll a)” value (Microcystis aeruginosa [1]) of the same molecule?
**A.** higher than all other algaecides

**Q.** What about the “effect on growth (OD600)” value (Staphylococcus aureus; 6-768 mg/L, 24 h, vs control) of the same molecule?
**A.** basically had no influence on the growth

**Q.** What about the “effect on growth (OD600)” value (Staphylococcus aureus; 6-768 mg/L, 24 h, vs control, listed as acetylacetone) of the same molecule?
**A.** no inhibitory effect

**Q.** What about the killing of bacteria (Staphylococcus aureus; [9]) of the same molecule?
**A.** will not kill

**Q.** And the “effect on growth (OD600)” value (Staphylococcus aureus; concentration of up to 768 mg/L)?
**A.** can still promote the growth

**Q.** What about the “growth rate (OD600)” value (Salmonella; 768 mg/L, still a growth trend within 24 h) of the same molecule?
**A.** decreased

**Q.** And the “growth rate (OD600)” value (Salmonella; 6-384 mg/L, compared with the control group)?
**A.** increased

**Q.** And the “effect on growth (OD600)” value (Salmonella; 6-768 mg/L, 24 h, vs control)?
**A.** no inhibitory effect; also recorded: basically had no influence on the growth

**Q.** What about the killing of bacteria (Salmonella; [9]) of the same molecule?
**A.** will not kill

**Q.** And the “growth rate (OD600)” value (Escherichia coli; 12 mg/L)?
**A.** slightly lower than that of the control group

**Q.** And the “effect on growth (OD600)” value (Escherichia coli)?
**A.** basically had no influence on the growth

**Q.** What about the “effect on growth (OD600)” value (Escherichia coli; listed as acetylacetone) of the same molecule?
**A.** no inhibitory effect

**Q.** And the “growth rate (OD600)” value (Escherichia coli; concentration increased to 24 mg/L)?
**A.** increased slightly

**Q.** And the killing of bacteria (Escherichia coli; [9])?
**A.** will not kill

**Q.** What about the “effect on growth (OD600)” value (Bacillus subtilis) of the same molecule?
**A.** basically had no influence on the growth

**Q.** And the “effect on growth (OD600)” value (Bacillus subtilis; listed as acetylacetone)?
**A.** no inhibitory effect

**Q.** What about the killing of bacteria (Bacillus subtilis; [9]) of the same molecule?
**A.** will not kill

**Q.** What about the “effect on growth (OD680)” value (Microcystis aeruginosa [2]; 10 mg/L) of the same molecule?
**A.** significantly inhibited

**Q.** What about the “effect on growth (OD680)” value (Microcystis aeruginosa [2]; 20 mg/L) of the same molecule?
**A.** significantly inhibited

**Q.** And the “algicidal effect on growth (OD680)” value ([3]; 5 mg/L)?
**A.** still showed algicidal effect

**Q.** And the “algicidal effect on growth (OD680)” value ([3]; 7 mg/L)?
**A.** a certain algicidal effect

**Q.** And the “growth curve (OD680)” value ([3]; 20 mg/L, compared with 10 mg/L and 15 mg/L AA)?
**A.** did not change significantly

**Q.** What about the “effect on growth (OD680)” value ([3]; dosage greater than 10 mg/L) of the same molecule?
**A.** significantly inhibited

**Q.** And the “effect on growth (OD680)” value ([3]; on day 1.5)?
**A.** inhibited

**Q.** What about the “algicidal performance (OD680)” value (Microcystis aeruginosa [4]) of the same molecule?
**A.** excellent algicidal performance

**Q.** What about the aquatic oxidation rate [5] of the same molecule?
**A.** 9.9e-09 M⁻¹ s⁻¹

**Q.** And the “Henry's law constant” value [6]?
**A.** 2.35×10^−6 atm m^3/mol

**Q.** And the “effect on growth (OD680)” value ([7]; 5 mg/L, compared to the control group)?
**A.** no significant effect

**Q.** What about the “effect on growth (OD680)” value ([7]; 7 mg/L) of the same molecule?
**A.** inhibited, but the growth curve of which is still increase

**Q.** What about the “algicidal effect on growth (OD680)” value ([7]; 10 mg/L, within 5 d, weaker than 15 mg/L) of the same molecule?
**A.** continued to show algicidal effect

**Q.** And the “growth curve (OD680)” value ([7]; 20 mg/L, compared with 15 mg/L AA)?
**A.** no significant change in the growth curve

**Q.** What about the “optical density (OD680)” value ([7]; AA concentration greater than 15 mg/L, starting from day 1.5) of the same molecule?
**A.** began to decrease

**Q.** And the “effect on growth (OD680)” value ([7]; first day of addition, 5-20 mg/L)?
**A.** no significant effect

**Q.** What about the “actual photochemical quantum yield” value (Microcystis aeruginosa [8]; after 1 day of incubation, 7, 10, 15 mg/L) of the same molecule?
**A.** significantly inhibited

**Q.** And the “actual photochemical quantum yield” value (Microcystis aeruginosa [8]; second day of growth, AA of greater than 7 mg/L)?
**A.** 0

**Q.** Which “inhibition rate on Microcystis aeruginosa (chlorophyll a)” value (Microcystis aeruginosa [1]) does the source give for `O=C(O)c1cc(O)c(O)c(O)c1` [gallic acid, reference compound] here?
**A.** close to that of AA
